Consider twelve compounds from patent publication US8697692B2, “Pyrrolo [3,2-c] pyridine-4-one 2-indolinone protein kinase inhibitors” (Shanghai Hengrui Pharmaceutical Co., Ltd., priority 2006, dated 2014).

In the assay the test system is HUVEC cell. The assay can be described thus: Cell Proliferation Inhibition VEGF-R2 Assay (SRB method). The following applies: Homo sapiens; HUVEC cells, 72 hours exposure, Sulforhodamine B; read-out: IC50 (VEGFR/HUVEC). It counts as cell-based, homo sapient. The source says:
The following in vitro assay may be used to determine the level of activity and effect of different compounds of the present invention on the proliferation inhibition (cell toxic) of endothelium growth factor receptor (VEGFR) high expressing homo […] cancer cell-HUVEC cell. The cellular assay described here measure the compounds of their anti-angiogenesis and proliferation inhibition activity and effect through […] on the cancer cells in vitro. The effect and activity is represented by the IC50 value that kills the cancer cell. […] The homo […] highly express […] are chosen and seeded to 96-well cell culture plate at a suitable concentration (exp 5000 cells/ml medium). The cells then are cultured in carbon dioxide (CO2) incubator till when they confluence to about 85%. Then, the cell culture medium is replaced by fresh one with tested compounds added in it at serial concentrations (general 6 to 7 concentrations). Then the cells are put back to the culture and cultured for continuous 72 hours. 72 hours later, the cell exposed to compounds and control cell are assayed for their proliferation using Sulforhodamine B (SRB) method. […] Dimethyl sulfoxide (Sinophma chemical reagent company, catalog No. T20050806) • b. HUVEC cells (Purchased from Institute of biochemistry and cell biology) • c. […] Acetic Acid (Sinophma chemical reagent company, Catalog No. T20060508) • l. Trichloroacetic Acid (Sinophma chemical reagent company, Catalog No. T20060305) • m. […] Class II A/B3 Biological safety cabinet (ThermoForma Catalog No. HB0053-03) • o. […] Centrifuge (Fisher Scientific Marathon 8 k, Catalog No. 0027-02) • q. Novastar Plate reader (BMG Labtech, Catalog No. 700-0081) • r. […] Growing seeded 96-well plates at 37° C., 5% CO2, till 85% confluence. • 4. Prepare compounds stock solution, using DMSO solve candidate compounds to a concentration of 20 mM. […] Use cell culture medium (in this case, DMEM/F12+10% FBS) to dilute the compounds solution prepared above. Each DMSO serial concentration compound solution is diluted by 20 times with culture medium by adding 5 μl DMSO compound solution to 95 μl culture medium, then mix well by vortex. […] After HUVEC cell has attached to the dish bottom and confluence about 85%, change the culture medium with fresh DMEM/F12 plus 10% FBS. Each well added 180 μl medium, then add 20 μl medium solution of tested compounds prepared at step 5 to each well. For control group cell, add 20 μl culture medium containing 0.5% pure DMSO. […] Each 96-well plate, we can test 3 compounds with a control cell group. • 7. Put the culture plates back to incubator, culture for 72 hours at 37° C., 5% CO2. • 8. 72 hours later, remove cultures from incubator into sterile work area. • 9. Prepare fixative (50% Trichloroacetic Acid-TCA) by adding reagent grade water to the TCA, fix the cells by gently layering 50 μl of cold TCA solution on top of the growth medium. • 10. Incubate plates for 1 hour at 4° C. and then rinse with water several times to remove TCA, serum proteins, etc. Plates are air dried and stored until use. Bland background optical density is measured in wells incubated with growth medium without cells. • 11. Use 10% acetic acid solution to prepare 0.4% Sulforhodamine B solution. Add 50 μl sulforhodamine B solution to each well of 96-well plates. • 12. Allow cells to stain for 30 minutes. • 13. Prepared the wash solution of […] acetic acid. At the end of the staining period, the stain is removed and the cells rinsed quickly with 1% acetic acid. Repeat until unincorporated dye is removed. Keep wash times to a minimum to reduce desorption of protein-bound dye. After being rinsed, the cultures are air dried until no moisture is visible. • 14. The incorporated dye is then solubilized in a volume of Sulforhodamine B assay Solubilization solution (10 mM Tris) equal to the original volume of culture medium. Allow cultures to stand for 5 minutes at room temperature.

Each structure is given as a SMILES string.

In the case of `CCN(CC)CCN1CCc2[nH]c(/C=C3\C(=O)Nc4ccc(NS(C)(=O)=O)cc43)c(C)c2C1=O` [Example 10, N-{3-[5-(2-Diethylamino-ethyl)-3-methyl-4-oxo-4,5,6,7-tetrahydro-1H-pyrrolo[3,2-c]pyridine-2-ylmethylene]-2-oxo-2,3-dihydro-1H-indol-5-yl}-methanesulfonamide], the IC50 is 0.36 µM. As to `CCN(CC)CCN1CCc2[nH]c(/C=C3\C(=O)Nc4ccc(NC(C)=O)cc43)c(C)c2C1=O` [Example 11, N-{3-[5-(2-Diethylamino-ethyl)-3-methyl-4-oxo-4,5,6,7-tetrahydro-1H-pyrrolo[3,2-c]pyridine-2-ylmethylene]-2-oxo-2,3-dihydro-1H-indol-5-yl}-acetamide], the IC50 came out at 0.17 µM. The value for `Cc1c(/C=C2\C(=O)Nc3ccc(Br)cc32)[nH]c2c1C(=O)N(CCN1CCOCC1)CC2` [Example 17, 2-(5-Bromo-2-oxo-1,2-dihydro-indol-3-ylidenemethyl)-3-methyl-5-(2-mopholin-4-yl-ethyl)-1,5,6,7-tetrahydro-pyrrolo[3,2-c]pyridin-4-one] was 2.26 µM; that for `CC(=O)Nc1cc2c(cc1F)/C(=C/c1[nH]c3c(c1C)C(=O)N(CCN1CCOCC1)CC3)C(=O)N2` [Example 19, N-{5-Fluoro-3-[3-methyl-5-(2-morpholin-4-yl-ethyl)-4-oxo-4,5,6,7-tetrahydro-1H-pyrrolo[3,2-c]pyridine-2-ylmethylene]-2-oxo-2,3-dihydro-1H-indol-6-yl}-acetamide] was 2.56 µM.

Turning to `Cc1c(/C=C2\C(=O)Nc3cc(N)c(F)cc32)[nH]c2c1C(=O)N(CCN1CCOCC1)CC2` [Example 20, 2-(6-Amino-5-fluoro-2-oxo-1,2-dihydro-indol-3-ylidenemethyl)-3-methyl-5-(2-morpholin-4-yl-ethyl)-1,5,6,7-tetrahydro-pyrrolo[3,2-c]pyridin-4-one], the IC50 amounted to 15.3 µM. The value for `Cc1c(/C=C2\C(=O)Nc3c(N)cc(F)cc32)[nH]c2c1C(=O)N(CCN1CCOCC1)CC2` [Example 21, 2-(7-Amino-5-fluoro-2-oxo-1,2-dihydro-indol-3-ylidenemethyl)-3-methyl-5-(2-morpholin-4-yl-ethyl)-1,5,6,7-tetrahydro-pyrrolo[3,2-c]pyridin-4-one] was 2.1 µM. Consider `Cc1c(/C=C2\C(=O)Nc3cccc(-c4cccc(F)c4F)c32)[nH]c2c1C(=O)N(CCN1CCOCC1)CC2` [Example 44, 2-[4-(2,3-Difluoro-phenyl)-2-oxo-1,2-dihydro-indol-3-ylidenemethyl]-3-methyl-5-(2-morpholin-4-yl-ethyl)-1,5,6,7-tetrahydro-pyrrolo[3,2-c]pyridin-4-one], for which the IC50 turned out to be 1.32 µM.

Take `COc1ccc2c(c1)/C(=C/c1[nH]c3c(c1C)C(=O)N(CCN1CCOCC1)CC3)C(=O)N2` [Example 45, 2-(5-Methoxy-2-oxo-1,2-dihydro-indol-3-ylidenemethyl)-3-methyl-5-(2-morpholin-4-yl-ethyl)-1,5,6,7-tetrahydro-pyrrolo[3,2-c]pyridin-4-one]: the IC50 amounted to 1.15 µM. For `O=C1Nc2ccc(F)cc2/C1=C/c1[nH]c2c(c1-c1ccc(F)cc1)C(=O)NCC2` [Example 46, 2-(5-Fluoro-2-oxo-1,2-dihydro-indol-3-ylidenemethyl)-3-(4-fluoro-phenyl)-1,5,6,7-tetrahydro-pyrrolo[3,2-c]pyridin-4-one], the IC50 was determined as 10.5 µM. The value for `Cc1cccc2c1/C(=C/c1[nH]c3c(c1C)C(=O)N(CCN1CCOCC1)CC3)C(=O)N2` [Example 51, 3-Methyl-2-(4-methyl-2-oxo-1,2-dihydro-indol-3-ylidenemethyl)-5-(2-morpholin-4-yl-ethyl)-1,5,6,7-tetrahydro-pyrrolo[3,2-c]pyridin-4-one] was 0.78 µM. In the case of `Cc1c(/C=C2\C(=O)Nc3ccc(NC=O)cc32)[nH]c2c1C(=O)N(CCN1CCOCC1)CC2` [Example 55, N-{3-[3-Methyl-5-(2-morpholin-4-yl-ethyl)-4-oxo-4,5,6,7-tetrahydro-1H-pyrrolo[3,2-c]pyridin-2-ylmethylene]-2-oxo-2,3-dihydro-1H-indol-5-yl}-formamide] it was 3.72 µM. For `O=C1Nc2ccc(Cl)cc2/C1=C/c1[nH]c2c(c1-c1ccc(F)cc1)C(=O)NCC2` [Example 58, 2-(5-Chloro-2-oxo-1,2-dihydro-indol-3-ylidenemethyl)-3-(4-fluoro-phenyl)-1,5,6,7-tetrahydro-pyrrolo[3,2-c]pyridin-4-one], the IC50 stood at 3.99 µM.
